Assay results from US20220041691A1, “METHODS FOR DIAGNOSING OR TREATING POST-TRAUMATIC STRESS DISORDER, AND COMPOSITIONS THEREFOR” (Centre for Addiction and Mental Health, priority 2018, published 2022).
Entries after “also recorded” stand apart in the source; their conditions may differ.

Legend:
fear-conditioned mice = test: Cued fear conditioning, systemic (i.p.) peptide delivery; assay type: in vivo, mouse
Experimental: Next, testing was performed to determine whether TAT-GRpep can block the emergence of PTSD-like fear-related behaviours when administrated systemically. Animals underwent five rounds of CS-US pairings followed by 5 days of extinction training before the expression of fear in response to the learned cue was assessed (FIG. 4A). Mice were injected with either TAT-GRpep or TAT intraperitoneally (3 nmol/g, i.p.) one hour before the test.
Furthermore, testing was performed to determine whether disrupting the GR-FKBP51 complex reduced consolidation of cued fear memory. Thus, TAT or TAT-GRpep was administered two hours after the end of fear conditioning training (FIG. 4C), before five consecutive daily extinction sessions of cue exposure without shock. […] This may therefore indicate a potential approach to both preventing and treating PTSD-like behaviour in the aftermath of trauma, for example.
Animals were first given a five-minute habituation to the apparatus (Habitest, Colbourne Instruments). Then, animals were exposed to 30 seconds of cue exposure (an in-house white light), which co-terminated with one second of foot-shock (0.5 mA). The cue exposure and foot-shock were repeated five times, intermitted by 5-minute inter-trial intervals. Following the conditioning, animals were subjected to 2-5 days of extinction before the assessment of their cued fear memory, which consisted of 15 rounds of 30-second cue exposure, with 30-second inter-trial intervals (adapted from Andero et al.).^48
The expression of fear (in a different context from training) was assessed 24 hours after the last extinction training. The assessment consisted of a three-minute period of habituation (absence of CS) and a sequent three-minute trial of conditioned cues. The duration of freezing behaviors was recorded by a blinded experimenter. Peptide treatment was either administered 2 hours after the conditioning or 30 minutes before the behavioral assessment.

GR-FKBP51 complex = target: T1, GR-FKBP51 complex (Mus musculus, UniProt Q64378); test: Co-immunoprecipitation of GR-FKBP51 complex in brain and lymphocyte lysate of fear-conditioned mice injected with peptide; assay type: in vivo
T1 construct: from tissue; host or cells: C57Bl/6 mouse brain (acute slices; whole-brain lysate) and blood lymphocytes
T1 sequence (Q64378 1-456): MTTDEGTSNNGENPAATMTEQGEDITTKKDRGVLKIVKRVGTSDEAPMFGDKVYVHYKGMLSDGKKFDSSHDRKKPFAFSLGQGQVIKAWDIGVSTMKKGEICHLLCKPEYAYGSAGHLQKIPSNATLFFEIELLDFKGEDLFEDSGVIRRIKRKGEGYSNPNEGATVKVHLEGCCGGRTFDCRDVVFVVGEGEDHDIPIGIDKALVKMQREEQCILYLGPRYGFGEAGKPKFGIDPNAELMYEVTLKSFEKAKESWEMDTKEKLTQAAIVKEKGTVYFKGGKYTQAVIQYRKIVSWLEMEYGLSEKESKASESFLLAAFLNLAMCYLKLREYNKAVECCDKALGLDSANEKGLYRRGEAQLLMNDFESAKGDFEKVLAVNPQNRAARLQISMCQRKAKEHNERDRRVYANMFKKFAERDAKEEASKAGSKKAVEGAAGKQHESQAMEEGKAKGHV
Experimental: Furthermore, testing was performed to determine whether disrupting the GR-FKBP51 complex reduced consolidation of cued fear memory. Thus, TAT or TAT-GRpep was administered two hours after the end of fear conditioning training (FIG. 4C), before five consecutive daily extinction sessions of cue exposure without shock.
(§1) Co-immunoprecipitation and Western blot analyses were performed as previously described.^24, 25, 26 For co-immunoprecipitation, 500˜1000 μg solubilized protein was extracted from whole mouse brain and incubated with primary antibody or control IgG (2˜4 μg) for 4 hrs at 4° C., followed by the addition of 25 μl protein A/G plus agarose (Santa Cruz Biotechnology) for 12 hrs. Pellets were washed, boiled for 5 min in SDS sample buffer and subjected to SDS-PAGE. 50˜100 μg of total protein extract was used as control in each experiment. After transfer of proteins into nitrocellulose, membranes were Western blotted with the primary antibodies. The intensity of protein level was quantified by densitometry (software: ImageLab, Bio-Rad).

[1] = test system: GR phosphorylation at S211; test: Western blot of GR phosphorylation at S211 in brain lysate of fear-conditioned mice; assay type: in vivo, mouse; settings: brain lysate of fear-conditioned mice injected with TAT or TAT-GRpep; p<0.05, n=3
Description: To further investigate these findings, surface plasmon resonance (SPR) was used to estimate association and dissociation rates between GR and FKBP51. […] Thus, GR S211 phosphorylation seems to reduce GR affinity for FKBP51. Conversely, disruption of the GR-FKBP51 complex with TAT-GRpep could increase GR S211 phosphorylation, which is what was observed when comparing fear-conditioned mice treated with TAT-GRpep vs. TAT control or no treatment (FIG. 5 I-J).
as §1, with “Bio-Rad). […]” for “Bio-Rad).”

[2] = test system: GR and FKBP52 colocalization in primary neurons; test: Immunocytochemistry of GR and FKBP52 in primary mouse neurons; assay type: cell-based
Experimental: Cortical tissues from embryonic day (E14) mouse brains were dissected out, incubated with 0.25% trypsin for 15 min at 37° C., and dissociated by mechanical trituration. Neurons were then plated at a desired density onto glass coverslips previously coated with 0.1 mg/ml poly-d-lysine, and grown in Neurobasal medium with 1× Glutamax, 1×B27, 100 U/ml penicillin and 100 μg/ml streptomycin in an incubator (37° C., 5% CO2). Either 10 μM of TAT-GRpep, 10 μM TAT-control peptide or saline were added in culture plates for 45 min in advance at 8 days in vitro (8 DIV).
Cultured neurons were fixed in 4% PFA/4% sucrose, permeabilized with 0.1M PBS containing 0.1% Triton X-100 for 10 min, and blocked for 1 hour with 1% bovine serum albumin in PBS at room temperature. They were incubated with primary antibodies overnight at 4° C. and secondary antibodies for 1 hour at room temperature. The following primary antibodies were used: anti-GR (1:200; Thermo), anti-FKBP51 (1:200; Abcam) and anti-FKBP52 (1:200; Abcam). […] DAPI was used to stain cell nuclei.

For “GRKKRRQRRRPQSPWRSDLLIDENCLL (Amino Acid Sequence of TAT-GRpep Peptide)”, the “duration of freezing with the CS” value (fear-conditioned mice; 3 nmol/g i.p. one hour before the test, after 5 days of extinction training, three-minute cue trial, p<0.05) was 34.1 ± 6.7 s, the “freezing behavior during habituation period without CS” value (fear-conditioned mice; 3 nmol/g i.p. one hour before the test, TAT-GRpep vs control group, p=NS) was “no difference in freezing behavior” and the “cued freezing behaviours (FIG. 4D)” value (fear-conditioned mice; peptide administered after fear conditioning, before extinction sessions, p<0.05) was “reduced cued freezing behaviours”. The “duration of freezing with the CS (consolidation of cued fear memory)” value (fear-conditioned mice; peptide administered two hours after end of fear conditioning, tested 24 hours after last of five daily extinction sessions, p<0.05) was 55.9 ± 3.3 s, the “GR-FKBP51 complex level in brain (co-immunoprecipitation)” value (GR-FKBP51 complex; brain lysate of fear-conditioned mice injected with TAT or TAT-GRpep, p<0.05, n=3) was “able to block the increase of GR-FKBP51 complex; also recorded: disrupt the GR-FKBP51 complex” and the “GR-FKBP51 complex level in lymphocyte lysate / peripheral blood (co-immunoprecipitation)” value (GR-FKBP51 complex; lymphocyte lysate from blood of fear-conditioned mice, p<0.01 vs TAT, n=4) was “able to disrupt the GR-FKBP51 complex”. The “GR phosphorylation at S211” value [1] was “able to block the decrease of GR phosphorylation at S211; also recorded: blocked the decrease in GR S211 phosphorylation”, the “nuclear GR levels” value ([2]; primary mouse neuron cultures, confocal microscope) was “markedly increased nuclear GR levels” and the “nuclear GR-FKBP52 colocalization” value ([2]; primary neurons 8 DIV, 10 μM, 45 min) was “marked increase in nuclear GR-FKBP52 colocalization”. The “colocalization between GR and FKBP52” value ([2]; primary neurons 8 DIV, 10 μM, 45 min, vs saline and control peptide) was “significantly more colocalization between GR and FKBP52; also recorded: co-localized more”.
